Measurements taken from publication PMC8776894 (Communications Biology, 2022).

Experiments:
Assay type in all cases: in vivo, mouse
MCAO/R mice = test: MRI of cerebral infarction after MCAO/R; settings: VK 300 i.p. at 0, 4, 22.5, 46.5 h, T2-weighted
Description: After MCAO/R, mice were treated with VK ([…], i.p.) at 0, 4, 22.5, and 46.5 h. Mice were deeply anesthetized with 1.5% isoflurane in a mixture of 30% O2 and 69% N2O. The magnetic resonance imaging (MRI) experiments were performed on a horizontal bore 9.4 Tesla scanner operating on a Bruker Avance platform (Bruker 9.4 T Biospec). T2-weighted imaging was used to evaluate the infarct volume. Three mutually perpendicular images were obtained to localize the infarction site. Then, 13–15 T2-weighted axial slices (1 mm thick) covering the entire damage area (field of view = 30 × 30 mm, matrix size = 256 × 256, echo time^3 = 33 ms, repetition time[68] = 3500 ms) were acquired by a spin-echo pulse sequence to delineate anatomical details and calculate qualitative T2 maps[69].

[1] = tested on: MCAO/R mice, brain homogenate; test: Biochemical kits, oxidative stress in brain (SOD, MDA, LPO, glutathione); settings: 48 h
Description: […] The brain was collected, weighed, and placed in a homogenizer for homogenization. Using 0.9% normal saline (NS) as a homogenization medium, a 10% tissue homogenate was prepared, centrifuged at 3500 rpm for 10 min, and the supernatant was taken. […] Kits for ATP, glutamic acid, glutathione, lactic acid, LPO, MDA, and SOD were purchased from Nanjingjiancheng Bioengineering Institute, and were measured as previously described for specification.

[2] = tested on: 17 phosphorylation sites, prefrontal cortex lysate; test: Phospho antibody microarray
Description: Protein phosphorylation detection was performed with a Phospho Explorer Antibody Array (Catalog number AAM-APOSIG-1-8, Ray Biotech, USA), allowing for the examination of 17 phosphorylation sites (three replicates per antibody). Whole-cell lysates from the prefrontal cortex in mice after MCAO/R and VK-treated, and the assay was performed according to the manufacturer’s protocol.

[3] = Group2(VK 150) VS Group1(VK 300)
[4] = Group2(VK 150) VS Group3(Sham), AveExp.Group3 minus AveExp.Group2
[5] = Group4(Vehicle) VS Group1(VK 300)
[6] = Group4(Vehicle) VS Group2(VK 150)
[7] = Vehicle vs VK headed 150 mg/kg, Regulation up
[8] = Vehicle vs VK headed 300mg/kg, Regulation up

Gly-Arg-Pro-Hyp-Gly-Phe-Ser-Pro-Phe-Arg-Ile-Asp [VK, Vespakinin-M]
area of cerebral infarction, MRI (MCAO/R mice): reduced the area of cerebral infarction | glutathione in brain, between groups [1]: no obvious difference | MDA and LPO content in brain cortex vs vehicle ([1]; VK 150 and 300 µg/kg): decreased content of MDA and LPO | SOD activity in brain cortex vs vehicle ([1]; VK 150 and 300 µg/kg): enhanced SOD activity | AKT(S473) logFC [2, 3]: 0.1681 | ATM(S1981) logFC [2, 3]: 0.4433 | BAD(S112) logFC [2, 3]: 0.1628 | CHK1 (S296) logFC [2, 3]: 0.118 | Casp3(D175) logFC [2, 3]: 0.2616 | Casp7(D198) logFC [2, 3]: 0.356 | Erk1/2(T202) logFC [2, 3]: 0.2636 | IkBa (S32) logFC [2, 3]: -0.1062 | JNK(T183) logFC [2, 3]: 0.1152 | NFKB(S536) logFC [2, 3]: 0.07606 | P27(T198) logFC [2, 3]: -0.02206 | P38(T180/Y182) logFC [2, 3]: 0.08158 | P53(S15) logFC [2, 3]: -0.02082 | SMAD2(S245) logFC [2, 3]: 0.2566 | TAK1(S412) logFC [2, 3]: 0.04657 | eIF2a (S51) logFC [2, 3]: 0.3172 | hsp27(S82) logFC [2, 3]: 0.2446 | AKT(S473) logFC [2, 4]: 0.1633 | ATM(S1981) logFC [2, 4]: 0.1496 | BAD(S112) logFC [2, 4]: 0.121 | CHK1 (S296) logFC [2, 4]: 0.2057 | Casp3(D175) logFC [2, 4]: 0.09625 | Casp7(D198) logFC [2, 4]: 0.03142 | Erk1/2(T202) logFC [2, 4]: 0.1043 | IkBa (S32) logFC [2, 4]: 0.1056 | JNK(T183) logFC [2, 4]: 0.02185 | NFKB(S536) logFC [2, 4]: -0.02812 | P27(T198) logFC [2, 4]: 0.08521 | P38(T180/Y182) logFC [2, 4]: -0.03282 | P53(S15) logFC [2, 4]: 0.03719 | SMAD2(S245) logFC [2, 4]: 0.04639 | TAK1(S412) logFC [2, 4]: 0.09444 | eIF2a (S51) logFC [2, 4]: 0.1069 | hsp27(S82) logFC [2, 4]: 0.06748 | AKT(S473) logFC ([2]; Group3(Sham) VS Group1(VK 300)): 0.3314 | ATM(S1981) logFC ([2]; Group3(Sham) VS Group1(VK 300)): 0.5929 | BAD(S112) logFC ([2]; Group3(Sham) VS Group1(VK 300)): 0.2838 | CHK1 (S296) logFC ([2]; Group3(Sham) VS Group1(VK 300)): 0.3237 | Casp3(D175) logFC ([2]; Group3(Sham) VS Group1(VK 300)): 0.3578 | Casp7(D198) logFC ([2]; Group3(Sham) VS Group1(VK 300)): 0.3874 | Erk1/2(T202) logFC ([2]; Group3(Sham) VS Group1(VK 300)): 0.3679 | IkBa (S32) logFC ([2]; Group3(Sham) VS Group1(VK 300)): -0.0006282 | JNK(T183) logFC ([2]; Group3(Sham) VS Group1(VK 300)): 0.137 | NFKB(S536) logFC ([2]; Group3(Sham) VS Group1(VK 300)): 0.04795 | P27(T198) logFC ([2]; Group3(Sham) VS Group1(VK 300)): 0.06315 | P38(T180/Y182) logFC ([2]; Group3(Sham) VS Group1(VK 300)): 0.04876 | P53(S15) logFC ([2]; Group3(Sham) VS Group1(VK 300)): 0.01637 | SMAD2(S245) logFC ([2]; Group3(Sham) VS Group1(VK 300)): 0.303 | TAK1(S412) logFC ([2]; Group3(Sham) VS Group1(VK 300)): 0.141 | eIF2a (S51) logFC ([2]; Group3(Sham) VS Group1(VK 300)): 0.4241 | hsp27(S82) logFC ([2]; Group3(Sham) VS Group1(VK 300)): 0.3121 | CHK1 (S296) logFC [2, 5]: 0.6052 | Casp7(D198) logFC [2, 5]: 0.6994 | Erk1/2(T202) logFC [2, 5]: 0.4686 | IkBa (S32) logFC [2, 5]: 0.671 | JNK(T183) logFC [2, 5]: 0.4121 | NFKB(S536) logFC [2, 5]: 0.4222 | P38(T180/Y182) logFC [2, 5]: 0.4307 | hsp27(S82) logFC [2, 5]: 0.386 | logFC AKT(S473) [2, 5]: 0.1073 | logFC ATM(S1981) [2, 5]: 0.3928 | logFC BAD(S112) [2, 5]: 0.3454 | logFC Casp3(D175) [2, 5]: 0.3417 | logFC P27(T198) [2, 5]: 0.1337 | logFC P53(S15) [2, 5]: 0.1112 | logFC SMAD2(S245) [2, 5]: 0.1323 | logFC TAK1(S412) [2, 5]: 0.1801 | logFC eIF2a (S51) [2, 5]: 0.3444 | logFC AKT(S473) [2, 6]: -0.06086 | logFC ATM(S1981) [2, 6]: -0.05046 | logFC BAD(S112) [2, 6]: 0.1826 | logFC CHK1 (S296) [2, 6]: 0.4872 | logFC Casp3(D175) [2, 6]: 0.08018 | logFC Casp7(D198) [2, 6]: 0.3435 | logFC Erk1/2(T202) [2, 6]: 0.205 | logFC IkBa (S32) [2, 6]: 0.7772 | logFC JNK(T183) [2, 6]: 0.2969 | logFC NFKB(S536) [2, 6]: 0.3462 | logFC P27(T198) [2, 6]: 0.1557 | logFC P38(T180/Y182) [2, 6]: 0.3491 | logFC P53(S15) [2, 6]: 0.132 | logFC SMAD2(S245) [2, 6]: -0.1242 | logFC TAK1(S412) [2, 6]: 0.1335 | logFC eIF2a (S51) [2, 6]: 0.02722 | logFC hsp27(S82) [2, 6]: 0.1414 | levels of IκBa (S32), CHK1 (S296), NF-κB (S536), p38 (T180/Y182), Casp7 (D198), JNK(T183) vs vehicle ([2]; VK 150 µg/kg, MCAO/R mice): clearly decreased levels | NFκB(S536) AveExp. Group2 ([2]; VK group headed 150 mg/kg): 11 | IκBa (S32) AveExp. Group2 ([2]; VK group headed 150 mg/kg (text 150 µg/kg)): 10.95 | NFκB(S536) AveExp. Group1 ([2]; VK group headed 300mg/kg): 10.93 | IκBa (S32) AveExp. Group1 ([2]; VK group headed 300mg/kg (text 300 µg/kg)): 11.05 | IκBa (S32) logFC ([2]; Vehicle (Group4) vs VK headed 150 mg/kg, Regulation up): 0.7772 | IκBa (S32) logFC ([2]; Vehicle (Group4) vs VK headed 300mg/kg, Regulation up): 0.671 | Casp7(D198) logFC [2, 7]: 0.3435 | JNK(T183) logFC [2, 7]: 0.2969 | NFκB(S536) logFC [2, 7]: 0.3462 | ATM(S1981) logFC [2, 8]: 0.3928 | BAD(S112) logFC [2, 8]: 0.3454 | CHK1 (S296) logFC [2, 8]: 0.6052 | Casp3(D175) logFC [2, 8]: 0.3417 | Casp7(D198) logFC [2, 8]: 0.6994 | Erk1/2(T202) logFC [2, 8]: 0.4686 | JNK(T183) logFC [2, 8]: 0.4121 | NFκB(S536) logFC [2, 8]: 0.4222 | P38(T180/Y182) logFC [2, 8]: 0.4307 | eIF2a (S51) logFC [2, 8]: 0.3444 | hsp27(S82) logFC [2, 8]: 0.386
